# Results: patent US20120004235A1, “METHODS TO TREAT CANCER” (Rutgers, The State University of New Jersey, priority 2009, published 2012)
# Where two headings read alike, the source gives them in different places.
# Columns and labels:
# [1] = test system: RPMI-8226 Human Multiple Myeloma; assay: Human tumor cell CFU assay (Test B); format: cell-based; conditions: colony formation in agar, continuous exposure 7-9 days
# Experimental: (§1) For human tumor cell CFU assays, the cell lines which grow as monolayers, MDA-MB-231, HCT116, HT29, NCI-H460, KB3-1 and KBV-1 were grown in RPMI medium (Invitrogen/Gibco, Grand Island, N.Y.) supplemented with 5% fetal bovine serum (Invitrogen/Gibco, Grand Island, NY). The RPMI-8226 cell line grows in suspension.
# For human tumor cell CFU assays, RPMI-8226 cells were grown in 0.35% agar in DMEM-F12 medium supplemented with 10% fetal bovine serum over a base layer of 0.5% agar in DMEM-F12 medium supplemented with 10% fetal bovine serum
# (§2) For experiments, human tumor cells (1 103) were plated in 6-well plates in medium supplemented with 5% or 10% fetal bovine serum. The compounds were tested in concentrations over the range from 0.01 to 100 nanomolar in half-log intervals covering […] along with untreated control wells. In later experiments some cases the concentration ranges were refined to focus on the region of interest in the response curves. Each compound concentration was tested in duplicate wells. Cultures were exposed to the compounds continuously for 7-9 days at 37° C. in a humidified atmosphere of 5% carbon dioxide balance air. Each experiment was performed three independent times. Colonies were defined as clusters containing 30 or more cells.
# (§3) The values were expressed as the mean values with lower and upper 95% confidence intervals in nanomolar concentrations.
# [2] = test system: NCI-H460 Human Non-small Cell Lung Carcinoma; assay: Human tumor cell CFU assay (Test B); format: cell-based; conditions: colony formation, continuous exposure 7-9 days; for IC50: read-out: IC50 Values (95% Lower and Upper Confidence Intervals); for IC90: read-out: IC90 Values (95% Lower and Upper Confidence Intervals)
# Experimental: as §1, §2
# (§4) For the monolayer cultures, colonies were visualized by staining with a preformulated crystal violet solution (Fisher Cat #291-472) which contained 0.41% crystal violet, 12% ethanol balance deionized water. To visualize the colonies, the medium was removed by aspiration; the monolayer was rinsed once with phosphate buffered saline which was removed by aspiration. Three drops of crystal violet solution was added to each well and the 6-well plate was rotated so that the crystal violet solution covered the surface area of each well. After 5 minutes exposure time, the wells were rinsed twice with phosphate buffered saline and the colonies were visible.
# as §3
# [3] = test system: MDA-MB-231 Human Breast Carcinoma; assay: Human tumor cell CFU assay (Test B); format: cell-based; conditions: colony formation, continuous exposure 7-9 days; for IC50: read-out: IC50 Values (95% Lower and Upper Confidence Intervals); for IC90: read-out: IC90 Values (95% Lower and Upper Confidence Intervals)
# Experimental: as §1, §2, §4, §3
# [4] = test system: KB-V1 MDR1+ KB3-1 Subline; assay: Human tumor cell CFU assay (Test B); format: cell-based; conditions: colony formation, continuous exposure 7-9 days
# Experimental: as §1, §2, §4, §3
# [5] = test system: HT29 Human Colon Carcinoma; assay: Human tumor cell CFU assay (Test B); format: cell-based; conditions: colony formation, continuous exposure 7-9 days; for IC50: read-out: IC50 Values (95% Lower and Upper Confidence Intervals); for IC90: read-out: IC90 Values (95% Lower and Upper Confidence Intervals)
# Experimental: as §1, §2, §4, §3
# [6] = test system: HCT116 Human Colon Carcinoma; assay: Human tumor cell CFU assay (Test B); format: cell-based; conditions: colony formation, continuous exposure 7-9 days; for IC50: read-out: IC50 Values (95% Lower and Upper Confidence Intervals); for IC90: read-out: IC90 Values (95% Lower and Upper Confidence Intervals)
# Experimental: as §1, §2, §4, §3
# [7] = test system: KB3-1 HeLa Human Cervical Carcinoma; assay: Human tumor cell CFU assay (Test B); format: cell-based; conditions: colony formation, continuous exposure 7-9 days; for IC90: read-out: IC90 Values (95% Lower and Upper Confidence Intervals)
# Experimental: as §1, §2, §4, §3
# [8] = test system: KBH5.0 BCRP+ KB3-1 Subline; assay: Human tumor cell CFU assay (Test B); format: cell-based; conditions: colony formation, continuous exposure 7-9 days; for IC50: read-out: IC50 Values (95% Lower and Upper Confidence Intervals)
# Experimental: as §1, §2, §4, §3
# [9] = test system: MDA-MB-231 human breast tumor xenograft; conditions: qd×5
# [10] = test system: NCI-H460 human non-small cell lung carcinoma xenograft; assay: Compound 2 citrate salt vs. NCI-H460 xenograft model (pemetrexed, topotecan, cisplatin controls); conditions: qd×5
compound,measurement,setting,value
COc1cc2c(=O)n(CCN(C)C)c3c4cc5c(cc4ncc3c2cc1OC)OCO5 [Compound 1],IC50,"[1]; Homo sapiens, RPMI-8226",1.8 nM
same,IC90,"[1]; Homo sapiens, RPMI-8226",5.8 nM
same,IC50,"[2]; Homo sapiens, NCI-H460",2.3 nM
same,IC90,"[2]; Homo sapiens, NCI-H460",6.2 nM
same,IC50,"[3]; Homo sapiens, MDA-MB-231",0.3 nM
same,IC90,"[3]; Homo sapiens, MDA-MB-231",1.2 nM
same,IC50,[4]; Homo sapiens,1.8 nM
same,IC90,[4]; Homo sapiens,5.7 nM
same,IC50,"[5]; Homo sapiens, HT-29",1.3 nM
same,IC90,"[5]; Homo sapiens, HT-29",4.3 nM
same,IC50,"[6]; Homo sapiens, HCT-116",1.7 nM
same,IC90,"[6]; Homo sapiens, HCT-116",5.6 nM
same,IC50,[7]; Homo sapiens,1.5 nM
same,IC90,[7]; Homo sapiens,5.2 nM
same,IC90,"[8]; Homo sapiens, KB 3-1",5.8 nM
same,IC50,"[8]; Homo sapiens, KB 3-1",1.8 nM
COc1cc2c(C(=O)NCC(C)(C)N(C)C)cc3c4cc5c(cc4ncc3c2cc1OC)OCO5 [Compound 3],IC50,"[1]; Homo sapiens, RPMI-8226",0.7 nM
same,IC90,"[1]; Homo sapiens, RPMI-8226",2.5 nM
same,IC50,"[2]; Homo sapiens, NCI-H460",0.9 nM
same,IC90,"[2]; Homo sapiens, NCI-H460",3 nM
same,IC50,"[3]; Homo sapiens, MDA-MB-231",0.5 nM
same,IC90,"[3]; Homo sapiens, MDA-MB-231",0.9 nM
same,IC50,[4]; Homo sapiens,0.6 nM
same,IC90,[4]; Homo sapiens,2.8 nM
same,IC50,"[5]; Homo sapiens, HT-29",0.5 nM
same,IC90,"[5]; Homo sapiens, HT-29",1.5 nM
same,IC50,"[6]; Homo sapiens, HCT-116",0.4 nM
same,IC90,"[6]; Homo sapiens, HCT-116",1.7 nM
same,IC50,[7]; Homo sapiens,0.8 nM
same,IC90,[7]; Homo sapiens,2.8 nM
same,IC90,"[8]; Homo sapiens, KB 3-1",2.3 nM
same,IC50,"[8]; Homo sapiens, KB 3-1",0.6 nM
COc1cc2c(=O)n(CCN(C)C(C)C)c3c4cc5c(cc4ncc3c2cc1OC)OCO5 [Compound 4],IC50,"[1]; Homo sapiens, RPMI-8226",0.4 nM
same,IC90,"[1]; Homo sapiens, RPMI-8226",1.5 nM
same,IC50,"[2]; Homo sapiens, NCI-H460",3.4 nM
same,IC90,"[2]; Homo sapiens, NCI-H460",11 nM
same,IC50,"[3]; Homo sapiens, MDA-MB-231",0.3 nM
same,IC90,"[3]; Homo sapiens, MDA-MB-231",1 nM
same,IC50,[4]; Homo sapiens,1.4 nM
same,IC90,[4]; Homo sapiens,6.9 nM
same,IC50,"[5]; Homo sapiens, HT-29",0.5 nM
same,IC90,"[5]; Homo sapiens, HT-29",1.9 nM
same,IC50,"[6]; Homo sapiens, HCT-116",1.2 nM
same,IC90,"[6]; Homo sapiens, HCT-116",4.4 nM
same,IC50,[7]; Homo sapiens,1 nM
same,IC90,[7]; Homo sapiens,4 nM
same,IC90,"[8]; Homo sapiens, KB 3-1",6 nM
same,IC50,"[8]; Homo sapiens, KB 3-1",1.3 nM
"COc1cccc2c1C(=O)c1c(O)c3c(c(O)c1C2=O)C[C@@](O)(C(=O)CO)C[C@@H]3O[C@H]1C[C@H](N)[C@H](O)[C@H](C)O1 [Doxorubicin, reference compound]",toxic deaths,"[9]; both dosages, 2.5 and 3 mg/kg/day IP",there were toxic deaths
"COc1cc2c(=O)n(CCN3CCCC3)c3c4cc5c(cc4nnc3c2cc1OC)OCO5 [Example 5, 2,3-Dimethoxy-8,9-methylenedioxy-11-[2-(pyrrolidin-1-yl)ethyl]-11H-5,6,11-triaza-chrysen-12-one]",melting point,,229 °C
"COc1cc2c(=O)n(CCN3CCCCC3)c3c4cc5c(cc4nnc3c2cc1OC)OCO5 [Example 6, 2,3-Dimethoxy-8,9-methylenedioxy-11-[2-(piperidin-1-yl)ethyl]-11H-5,6,11-triaza-chrysen-12-one]",melting point,,294 to 295 °C
"COc1cc2c(=O)n(C(C)CN(C)C)c3c4cc5c(cc4ncc3c2cc1OC)OCO5 (stereo not shown) [Example 8, 8,9-Dimethoxy-2,3-methylenedioxy-5-[2-(N,N-dimethylamino)-1-methylethyl]-5H-dibenzo[c,h]1,6-naphthyridin-6-one]",melting point,,186 to 187 °C
"COc1cc2c(=O)n(CCN3CCCC3)c3c4cc5c(cc4ncc3c2cc1OC)OCO5 [Example 9, 8,9-Dimethoxy-2,3-methylenedioxy-5-[2-(pyrrolidin-1-yl)ethyl]-5H-dibenzo[c,h]1,6-naphthyridin-6-one]",melting point,,255 to 257 °C (dec.)
"COc1cc2c(=O)n(CCCN(C)C)c3c4cc5c(cc4ncc3c2cc1OC)OCO5 [Example 11, 8,9-Dimethoxy-2,3-methylenedioxy-5-[3-(N,N-dimethylamino)propyl]-5H-dibenzo[c,h]1,6-naphthyridin-6-one]",melting point,,262 to 264 °C (dec.)
"COc1cc2c(=O)n(CCO)c3c4cc5c(cc4ncc3c2cc1OC)OCO5 [Example 13, 8,9-Dimethoxy-2,3-methylenedioxy-5-[2-(hydroxy)ethyl]-5H-dibenzo[c,h]1,6-naphthyridin-6-one]",melting point,,285 to 286 °C
"COc1cc2c(=O)n(CCOCCO)c3c4cc5c(cc4ncc3c2cc1OC)OCO5 [Example 14, 8,9-Dimethoxy-2,3-methylenedioxy-5-[2-(2-hydroxyethoxy)ethyl]-5H-dibenzo[c,h]1,6-naphthyridin-6-one]",melting point,,235 °C
"COc1cc2c(cc1OC)-c1cnc3cc4c(cc3c1N(CCN(C)C)C2)OCO4 [Example 17, 8,9-Dimethoxy-2,3-methylenedioxy-5-[2-(N,N-dimethylamino)ethyl]-5,6-dihydro-dibenzo[c,h]1,6-naphthyridine]",melting point,,271 to 273 °C (dec.)
"COc1cc2c(cc1OC)-c1cnc3cc4c(cc3c1N(C(C)CN(C)C)C2)OCO4 (stereo not shown) [Example 18, 8,9-Dimethoxy-2,3-methylenedioxy-5-[2-(N,N-dimethylamino)-1-methylethyl]-5,6-dihydro-dibenzo[c,h]1,6-naphthyridine]",melting point,,153 to 154 °C
"CCN(CC)CCn1c(=O)c2cc(OC)c(OC)cc2c2cnc3cc4c(cc3c21)OCO4 [Example 19, 8,9-Dimethoxy-2,3-methylenedioxy-5-[2-(N,N-diethylamino)ethyl]-5H-dibenzo[c,h]1,6-naphthyridin-6-one]",melting point,,221 to 223 °C (dec.)
"O=C(O)C(=O)O.[NH-][C@@H]1CCCC[C@H]1[NH-].[Pt+2] [Oxaliplatin, reference compound]",delay in tumor growth,[9]; 5 and 6.5 mg/kg/day IP,13 days
same,tolerability,[9]; 5 and 6.5 mg/kg/day IP,well tolerated
same,TGI (T/C),"[9]; both dosages, 5 and 6.5 mg/kg/day IP",45.1-47.6%
"Nc1nc2[nH]cc(CCc3ccc(C(=O)N[C@@H](CCC(=O)O)C(=O)O)cc3)c2c(=O)[nH]1 [Pemetrexed, reference compound]",antitumor activity,[10]; 100 and 150 mg/kg/day IP,not considered active
same,body weight loss,[10]; 100 and 150 mg/kg/day IP,≤ 20%
"CCc1c2c(nc3ccc(O)cc13)-c1cc3c(c(=O)n1C2)COC(=O)[C@]3(O)CC [SN-38, 7-ethyl-10-hydroxyl-camptothecin, reference compound]",IC50,[1],0.9 nM
same,IC90,[1],3 nM
same,IC50,[2],4.7 nM
same,IC90,[2],13.3 nM
same,IC50,[3],0.7 nM
same,IC90,[3],2 nM
same,IC50,[4],15 nM
same,IC90,[4],55 nM
same,IC50,[5],0.5 nM
same,IC90,[5],1.8 nM
same,IC50,[6],2.7 nM
same,IC90,[6],8.4 nM
same,IC50,[7],5.3 nM
same,IC90,[7],19.1 nM
same,IC90,[8],18.8 nM
same,IC50,[8],6.1 nM
"CC[C@@]1(O)C(=O)OCc2c1cc1n(c2=O)Cc2cc3c(CN(C)C)c(O)ccc3nc2-1 [Topotecan, reference compound]",IC50,"[1]; Homo sapiens, RPMI-8226",12.7 nM
same,IC90,"[1]; Homo sapiens, RPMI-8226",43.2 nM
same,body weight loss,[10]; 2 and 2.5 mg/kg/day IP,> 30%
same,IC50,"[2]; Homo sapiens, NCI-H460",18.2 nM
same,IC90,"[2]; Homo sapiens, NCI-H460",52.5 nM
same,IC50,"[3]; Homo sapiens, MDA-MB-231",5.6 nM
same,IC90,"[3]; Homo sapiens, MDA-MB-231",19.5 nM
same,IC50,[4]; Homo sapiens,75 nM
same,IC90,[4]; Homo sapiens,257 nM
same,IC50,"[5]; Homo sapiens, HT-29",2.9 nM
same,IC90,"[5]; Homo sapiens, HT-29",11.2 nM
same,IC50,"[6]; Homo sapiens, HCT-116",8.5 nM
same,IC90,"[6]; Homo sapiens, HCT-116",26.3 nM
same,IC50,[7]; Homo sapiens,32.7 nM
same,IC90,[7]; Homo sapiens,107 nM
same,IC90,"[8]; Homo sapiens, KB 3-1",115 nM
same,IC50,"[8]; Homo sapiens, KB 3-1",32 nM
